# Data taken from ChEMBL document CHEMBL5260802, “Discovery of Novel Allosteric HCV NS5B Inhibitors. 2. Lactam-Containing Thiophene Carboxylates” (ACS Med Chem Lett, 2017).
# Key:
# Hepatitis C virus [1] = assay: Antiviral activity against Hepatitis C virus subtype 1b infected in Huh-7 cells transfected with HCV subgenomic replicon for NS5B polymerase assessed as inhibition of viral replication measured upto 96 hrs by luciferase reporter gene assay; type: functional, organism-based, Hepacivirus hominis; settings: for IC50: Huh-7, 96 h; for IC90: Huh-7, time <= 96 hrs
# Hepatitis C virus [2] = assay: Antiviral activity against Hepatitis C virus subtype 1b infected in Huh-7 cells transfected with HCV subgenomic replicon for NS5B polymerase assessed as inhibition of viral replication measured upto 96 hrs in presence of 40% of human serum by luciferase reporter gene assay; type: functional, organism-based, Hepacivirus hominis; settings: Huh-7, 96 h
# [3] = Cytotoxicity against human Huh-7 cells transfected with HCV subgenomic replicon for NS5B polymerase assessed as reduction in cell viability; type: toxicity, cell-based
# [4] = Protein binding in rat plasma at 1 uM incubated for 6 hrs by LC-MS/MS based rapid equilibrium dialysis method; type: ADME, cell-free; settings: read-out: PPB (converted)
# [5] = AUC (0 to infinity) in Sprague-Dawley rat at 0.5 mg/kg,iv and measured after 72 hrs by LC/MS/MS analysis; type: ADME, organism-based; set-up: time 72 hrs, dose 0.5 mg/kg, route iv; settings: in vivo
# [6] = Unbound AUC (0 to infinity) in Sprague-Dawley rat at 0.5 mg/kg,iv and measured after 72 hrs by LC/MS/MS analysis; type: ADME, organism-based; settings: in vivo
# [7] = Unbound clearance in Sprague-Dawley rat at 0.5 mg/kg,iv and measured after 72 hrs by LC/MS/MS analysis; type: ADME, organism-based; settings: in vivo
# [8] = Half life in Sprague-Dawley rat at 0.5 mg/kg,iv and measured after 72 hrs by LC/MS/MS analysis; type: ADME, organism-based; settings: in vivo
# [9] = Volume of distribution at steady state in Sprague-Dawley rat at 0.5 mg/kg,iv and measured after 72 hrs by LC/MS/MS analysis; type: ADME, organism-based; settings: in vivo, read-out: Vdss
# [10] = AUC (0 to infinity) in Sprague-Dawley rat at 1.5 mg/kg,po and measured after 72 hrs by LC/MS/MS analysis; type: ADME, organism-based; set-up: dose 1.5 mg/kg, time 72 hrs, route po; settings: in vivo
# [11] = Unbound AUC (0 to infinity) in Sprague-Dawley rat at 1.5 mg/kg,po and measured after 72 hrs by LC/MS/MS analysis; type: ADME, organism-based; settings: in vivo
# [12] = Cmax in Sprague-Dawley rat at 1.5 mg/kg,po and measured after 72 hrs by LC/MS/MS analysis; type: ADME, organism-based; set-up: dose 1.5 mg/kg, time 72 hrs, route po; settings: in vivo
# [13] = Oral bioavailability in Sprague-Dawley rat at 1.5 mg/kg and measured after 72 hrs by LC/MS/MS analysis; type: ADME, organism-based; settings: in vivo
# [14] = Half life in Sprague-Dawley rat at 1.5 mg/kg,po and measured after 72 hrs by LC/MS/MS analysis; type: ADME, organism-based; settings: in vivo
# [15] = Protein binding in human plasma at 1 uM incubated for 6 hrs by LC-MS/MS based rapid equilibrium dialysis method; type: ADME, cell-free; settings: read-out: PPB
# [16] = Microsomal stability in rat liver microsomes assessed as parent compound remaining at 1 uM and measured after 30 mins in presence of NADPH by LC/MS/MS analysis; type: ADME, Microsome; settings: 0.5 h
# [17] = Microsomal stability in human liver microsomes assessed as parent compound remaining at 1 uM and measured after 30 mins in presence of NADPH by LC/MS/MS analysis; type: ADME, Microsome; settings: 0.5 h
# Cytochrome P450 3A4 = Cytochrome P450 3A4 (Homo sapiens, UniProt P08684); assay: Inhibition of CYP3A4 in human liver microsomes incubated for 10 mins in presence of NADPH by LC/MS/MS analysis; type: ADME, Microsome
# Cytochrome P450 2D6 = Cytochrome P450 2D6 (Homo sapiens, UniProt P10635); assay: Inhibition of CYP2D6 in human liver microsomes incubated for 10 mins in presence of NADPH by LC/MS/MS analysis; type: ADME, Microsome
# Cytochrome P450 2C9 = Cytochrome P450 2C9 (Homo sapiens, UniProt P11712); assay: Inhibition of CYP2C9 in human liver microsomes incubated for 10 mins in presence of NADPH by LC/MS/MS analysis; type: ADME, Microsome
# [18] = molecular target: T1, Nuclear receptor subfamily 1 group I member 2 (Homo sapiens, UniProt O75469); assay: Activation of human PXR expressed in human DPX2 co-expressing luciferase reporter gene incubated for 24 hrs by luciferase assay; type: cell-based
# T1 sequence (O75469 whole entry): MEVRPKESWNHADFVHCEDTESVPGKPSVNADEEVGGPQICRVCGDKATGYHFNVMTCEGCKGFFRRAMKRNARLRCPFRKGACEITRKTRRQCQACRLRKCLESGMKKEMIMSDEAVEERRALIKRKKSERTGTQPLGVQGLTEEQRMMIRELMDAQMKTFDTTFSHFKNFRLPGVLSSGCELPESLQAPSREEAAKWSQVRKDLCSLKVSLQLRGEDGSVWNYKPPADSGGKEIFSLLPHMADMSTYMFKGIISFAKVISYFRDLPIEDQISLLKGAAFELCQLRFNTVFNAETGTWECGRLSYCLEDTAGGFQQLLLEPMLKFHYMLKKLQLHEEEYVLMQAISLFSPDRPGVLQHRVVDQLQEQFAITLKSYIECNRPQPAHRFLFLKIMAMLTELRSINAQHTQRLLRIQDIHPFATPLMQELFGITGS
# PXR [19] = molecular target: T2, PXR (Homo sapiens, UniProt O75469); assay: Activation of human PXR expressed in human DPX2 co-expressing luciferase reporter gene assessed as maximum efficacy incubated for 24 hrs by luciferase assay relative to control; type: cell-based; settings: DPX2 cells expressing human PXR and luciferase reporter gene
# T2 sequence (O75469 whole entry): T1 sequence (O75469 whole entry)
# PXR [20] = molecular target: T2, PXR; assay: Activation of human PXR expressed in human DPX2 co-expressing luciferase reporter gene assessed as fold increase incubated for 24 hrs by luciferase assay relative to control; type: cell-based; settings: DPX2 cells expressing human PXR and luciferase reporter gene, read-out: FC
# [21] = AUC (0 to infinity) in Sprague-Dawley rat at 1 mg/kg,iv and measured after 72 hrs by LC/MS/MS analysis; type: ADME, organism-based; set-up: time 72 hrs, dose 1 mg/kg, route iv; settings: in vivo; for AUC(0-inf): Sprague-Dawley
# [22] = Unbound AUC (0 to infinity) in Sprague-Dawley rat at 1 mg/kg,iv and measured after 72 hrs by LC/MS/MS analysis; type: ADME, organism-based; settings: in vivo
# [23] = Clearance in Sprague-Dawley rat at 1 mg/kg,iv and measured after 72 hrs by LC/MS/MS analysis; type: ADME, organism-based; settings: in vivo
# [24] = Unbound clearance in Sprague-Dawley rat at 1 mg/kg,iv and measured after 72 hrs by LC/MS/MS analysis; type: ADME, organism-based; settings: in vivo
# [25] = Half life in Sprague-Dawley rat at 1 mg/kg,iv and measured after 72 hrs by LC/MS/MS analysis; type: ADME, organism-based; settings: in vivo
# [26] = Volume of distribution at steady state in Sprague-Dawley rat at 1 mg/kg,iv and measured after 72 hrs by LC/MS/MS analysis; type: ADME, organism-based; settings: in vivo, read-out: Vdss
# [27] = AUC (0 to infinity) in Sprague-Dawley rat at 3 mg/kg,po and measured after 72 hrs by LC/MS/MS analysis; type: ADME, organism-based; set-up: time 72 hrs, dose 3 mg/kg, route po; settings: in vivo
# [28] = Unbound AUC (0 to infinity) in Sprague-Dawley rat at 3 mg/kg,po and measured after 72 hrs by LC/MS/MS analysis; type: ADME, organism-based; settings: in vivo
# [29] = Cmax in Sprague-Dawley rat at 3 mg/kg,po and measured after 72 hrs by LC/MS/MS analysis; type: ADME, organism-based; set-up: time 72 hrs, dose 3 mg/kg, route po; settings: in vivo
# [30] = Oral bioavailability in Sprague-Dawley rat at 3 mg/kg and measured after 72 hrs by LC/MS/MS analysis; type: ADME, organism-based; settings: in vivo
# [31] = Half life in Sprague-Dawley rat at 3 mg/kg,po and measured after 72 hrs by LC/MS/MS analysis; type: ADME, organism-based; settings: in vivo
# Chain of Cytochrome P450 2D6 (P10635 whole entry): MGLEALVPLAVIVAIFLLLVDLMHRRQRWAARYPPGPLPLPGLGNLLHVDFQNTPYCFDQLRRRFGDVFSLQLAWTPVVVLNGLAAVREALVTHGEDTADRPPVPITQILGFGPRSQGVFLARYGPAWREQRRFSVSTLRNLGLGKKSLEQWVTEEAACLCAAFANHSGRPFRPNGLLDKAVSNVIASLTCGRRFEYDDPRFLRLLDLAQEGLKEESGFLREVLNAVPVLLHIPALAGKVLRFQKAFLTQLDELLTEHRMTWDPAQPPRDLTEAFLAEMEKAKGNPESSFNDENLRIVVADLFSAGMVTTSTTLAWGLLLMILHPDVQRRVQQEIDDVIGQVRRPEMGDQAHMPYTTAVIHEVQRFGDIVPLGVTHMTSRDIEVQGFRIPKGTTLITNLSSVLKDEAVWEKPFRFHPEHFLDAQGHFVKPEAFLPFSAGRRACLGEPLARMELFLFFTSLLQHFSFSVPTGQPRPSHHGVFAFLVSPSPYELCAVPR
# Chain of Cytochrome P450 3A4 (P08684 whole entry): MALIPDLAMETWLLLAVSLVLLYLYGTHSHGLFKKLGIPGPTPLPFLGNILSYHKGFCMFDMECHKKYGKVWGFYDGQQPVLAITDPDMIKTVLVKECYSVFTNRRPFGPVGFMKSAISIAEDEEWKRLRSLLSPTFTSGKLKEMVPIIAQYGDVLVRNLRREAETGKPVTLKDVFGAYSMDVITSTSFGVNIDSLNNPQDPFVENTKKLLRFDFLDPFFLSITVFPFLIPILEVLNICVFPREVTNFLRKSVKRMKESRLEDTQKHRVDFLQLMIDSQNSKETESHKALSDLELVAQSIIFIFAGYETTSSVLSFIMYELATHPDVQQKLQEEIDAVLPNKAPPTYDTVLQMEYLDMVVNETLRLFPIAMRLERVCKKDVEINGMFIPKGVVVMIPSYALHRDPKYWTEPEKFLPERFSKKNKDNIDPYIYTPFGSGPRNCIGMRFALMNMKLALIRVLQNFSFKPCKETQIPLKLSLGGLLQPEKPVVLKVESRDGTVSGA
# Chain of Cytochrome P450 2C9 (P11712 whole entry): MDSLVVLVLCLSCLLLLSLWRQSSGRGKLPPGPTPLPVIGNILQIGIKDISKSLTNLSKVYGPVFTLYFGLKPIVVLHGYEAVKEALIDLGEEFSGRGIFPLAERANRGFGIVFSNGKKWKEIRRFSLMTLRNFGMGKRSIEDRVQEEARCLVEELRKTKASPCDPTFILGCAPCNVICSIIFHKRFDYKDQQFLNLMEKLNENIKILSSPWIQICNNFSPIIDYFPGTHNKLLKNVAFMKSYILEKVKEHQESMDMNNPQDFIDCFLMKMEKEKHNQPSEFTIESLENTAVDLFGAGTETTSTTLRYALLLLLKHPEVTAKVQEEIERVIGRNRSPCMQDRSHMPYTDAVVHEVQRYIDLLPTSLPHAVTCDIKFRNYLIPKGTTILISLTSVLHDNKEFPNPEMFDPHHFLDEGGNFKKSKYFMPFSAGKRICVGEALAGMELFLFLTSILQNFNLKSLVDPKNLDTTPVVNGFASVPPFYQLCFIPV
Compound,IC50 (Hepatitis C virus [1]) [µM],IC90 (Hepatitis C virus [1]) [µM],IC50 (Hepatitis C virus [2]) [µM],"fraction unbound at 6 h, 1 µM [4]",EC50 [18] [µM],Emax at 24 h (PXR [19]) [%],fAUC [22] [µg·h/mL],CL free [24] [L/h/kg],half-life [25] [h],Vd [26] [L/kg],AUC(0-inf) [27] [µg·h/mL],fAUC [28] [µg·h/mL],Cmax [29] [µg/mL],bioavailability [30] [%],CC50 [3] [µM],further results
CC(C)(C)C#Cc1cc(N(CC(=O)N2CCOCC2)C(=O)[C@H]2CC[C@H](C)CC2)c(C(=O)O)s1,0.023,0.1,0.34,–,–,–,–,–,–,–,–,–,–,–,> 20,–
CC(C)(C)C#Cc1cc(N(C(=O)[C@H]2CC[C@H](C)CC2)[C@H]2CC[C@H](O)CC2)c(C(=O)O)s1 [LOMIBUVIR],0.025,0.097,0.203,–,–,–,–,–,–,–,–,–,–,–,> 20,–
CN1CCCC[C@@H](N(c2cc(C#CC(C)(C)C)sc2C(=O)O)C(=O)[C@H]2CC[C@H](C)CC2)C1=O,0.029,0.063,0.156,0.002,> 30,16,0.00226,477,2.79,1.05,3.53,0.00706,0.589,122,> 20,AUC(0-inf) [21]: 1.13 µg·h/mL; clearance [23]: 0.954 L/h/kg; half-life [31]: 4.31 h
CN1CCC[C@@H](N(c2cc(C#CC(C)(C)C)sc2C(=O)O)C(=O)[C@H]2CC[C@H](C)CC2)C1=O,0.01,0.044,0.105,0.0004,20.4,28,–,–,–,–,–,–,–,–,> 20,AUC [5]: 25.4 µg·h/mL; fAUC [6]: 0.0102 µg·h/mL; CL free [7]: 178.8 L/h/kg; half-life [8]: 5.57 h; Vd [9]: 0.221 L/kg; AUC(0-inf) [10]: 24.4 µg·h/mL; fAUC [11]: 0.00976 µg·h/mL; Cmax [12]: 2.54 µg/mL; bioavailability [13]: 32%; half-life [14]: 6.13 h; fold induction at 24 h (PXR [20]): 7.3
C[C@H](C(=O)N(C)C)N(c1cc(C#CC(C)(C)C)sc1C(=O)O)C(=O)[C@H]1CC[C@H](C)CC1,0.11,0.61,1.32,–,–,–,–,–,–,–,–,–,–,–,> 20,–
CN1CC[C@@H](N(c2cc(C#CC(C)(C)C)sc2C(=O)O)C(=O)[C@H]2CC[C@H](C)CC2)C1=O,0.016,0.096,0.14,0.002,–,–,0.00348,678,2.73,1.93,3.32,0.00664,1.31,64,> 20,AUC ([21]; 72 h): 1.74 µg·h/mL

# Compounds with a lower IC50 (Hepatitis C virus [1]), results first:
IC50 (Hepatitis C virus [1]) [µM],IC90 (Hepatitis C virus [1]) [µM],IC50 (Hepatitis C virus [2]) [µM],"fraction unbound at 6 h, 1 µM [4]",EC50 [18] [µM],Emax at 24 h (PXR [19]) [%],fAUC [22] [µg·h/mL],CL free [24] [L/h/kg],half-life [25] [h],Vd [26] [L/kg],AUC(0-inf) [27] [µg·h/mL],fAUC [28] [µg·h/mL],Cmax [29] [µg/mL],bioavailability [30] [%],Compound,CC50 [3] [µM],further results
0.005,0.024,0.049,–,–,–,–,–,–,–,–,–,–,–,C[C@@H](C(=O)N(C)C)N(c1cc(C#CC(C)(C)C)sc1C(=O)O)C(=O)[C@H]1CC[C@H](C)CC1,> 20,–
0.004,0.013,0.04,0.019,–,–,0.00435,232.8,3.07,6.04,0.176,0.00334,0.119,26,CN1CC[C@H](N(c2cc(C#CC(C)(C)C)sc2C(=O)O)C(=O)[C@H]2CC[C@H](C)CC2)C1=O,> 20,AUC(0-inf) [21]: 0.229 µg·h/mL; clearance [23]: 4.42 L/h/kg; half-life [31]: 4.66 h
0.003,0.008,0.024,0.011,17.3,63,–,–,–,–,–,–,–,–,CN1CCC[C@H](N(c2cc(C#CC(C)(C)C)sc2C(=O)O)C(=O)[C@H]2CC[C@H](C)CC2)C1=O,> 20,"AUC [5]: 8.77 µg·h/mL; fAUC [6]: 0.0965 µg·h/mL; CL free [7]: 45.3 L/h/kg; half-life [8]: 6.68 h; Vd [9]: 1.17 L/kg; AUC(0-inf) [10]: 6.39 µg·h/mL; fAUC [11]: 0.0703 µg·h/mL; Cmax [12]: 0.751 µg/mL; bioavailability [13]: 24%; half-life [14]: 4.8 h; fraction unbound at 6 h, 1 µM [15]: 0.01; Stability [16]: Stable; Stability [17]: Stable; IC50 (Cytochrome P450 3A4): > 30 µM; IC50 (Cytochrome P450 2D6): > 30 µM; IC50 (Cytochrome P450 2C9): > 30 µM; fold induction at 24 h (PXR [20]): 15.1"
